Measurements published in paper PMC8041284, “Tunable Methacrylamides for Covalent Ligand Directed Release Chemistry” (Journal of the American Chemical Society, 2021).
*1 amine or outer side, *2 acyl side, *3 side chain or, on linkers, in order; H or OH if unused. Where a SMILES comes first, the peptide text is derived from it. Bridges are numbered along the chain shown (N, C = ends). [ ]: non-standard residue; d: D form. The star is where a group is joined. pTerphenylCO(4''-OnC5H11) = CCCCCOc1ccc(-c2ccc(-c3ccc(C(=O)*)cc3)cc2)cc1; Orn(4R-OH,5R-OH) = O=C([C@H](C[C@@H](O)[C@@H](O)N[*:3])N[*:1])[*:2]; hTyr(3S-OH,4S-OH) = N[C@H](C(=O)O)[C@H](O)[C@@H](O)c1ccc(O)cc1; Pro(3S-OH,4S-Me) = C[C@H]1CN[C@H](C(=O)O)[C@H]1O; Hyp = O=C(O)[C@@H]1C[C@@H](O)CN1

Target: BTK (Homo sapiens, UniProt Q06187)
Sequence (Q06187 402-655 limits assumed): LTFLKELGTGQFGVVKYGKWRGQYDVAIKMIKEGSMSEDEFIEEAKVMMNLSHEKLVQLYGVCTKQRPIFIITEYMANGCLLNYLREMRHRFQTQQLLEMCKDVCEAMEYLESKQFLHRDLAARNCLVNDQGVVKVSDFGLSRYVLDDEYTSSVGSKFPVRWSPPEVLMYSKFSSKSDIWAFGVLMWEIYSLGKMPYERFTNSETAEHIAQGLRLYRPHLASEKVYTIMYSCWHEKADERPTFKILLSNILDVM
Experiment: biochemical
Conditions: read-out: BTK inhibition (%)

Compound	inhibition at 10 µM [%]
CC(C)C(Br)C(=O)NC(N)=O (stereo not drawn) [PCM-0216023]	12.4
O=C(O)CCCCCCCCCO [PCM-0216560]	14.7

Same assay, conditions: read-out: BTK inhibition (%), 0.75 uM BTK, […] probe 3l, 15 min preincubation

Compound	inhibition at 10 µM [%]
CCCCCOc1ccc(-c2ccc(-c3ccc(C(=O)N[C@H]4C[C@@H](O)[C@@H](O)NC(=O)[C@@H]5[C@@H](O)[C@@H](C)CN5C(=O)[C@H]([C@@H](C)O)NC(=O)[C@H]([C@H](O)[C@@H](O)c5ccc(O)cc5)NC(=O)[C@@H]5C[C@@H](O)CN5C(=O)[C@H]([C@@H](C)O)NC4=O)cc3)cc2)cc1 [PCM-0214798] ({pTerphenylCO(4''-OnC5H11)}-[Orn(4R-OH,5R-OH)]T[Hyp][hTyr(3S-OH,4S-OH)]T[Pro(3S-OH,4S-Me)]; lactam 1-C)	122
N#Cc1ccc(C(c2ccc(C#N)cc2)n2cncn2)cc1 [PCM-0086304]	-2.1
CN1CCN(C2CCN(C(=O)Nc3cc(Oc4ccc(NC(=O)C5(C(=O)Nc6ccc(F)cc6)CC5)c(F)c4)ccn3)CC2)CC1 [PCM-0095502]	17.2
CC(C)[C@H](C(=O)Nc1ccc(C(=O)NO)cc1)c1ccccc1 [PCM-0095283]	17.1
COC1[C@@H](O)[C@H](O)C(O)[C@H](O)[C@H]1O (stereo partly drawn) [PCM-0216283]	11.6
CN1CCN(Cc2ccc(NC(=O)Cc3ccc(Oc4cc(NC(=O)C5CC5)ncn4)cc3)cc2C(F)(F)F)CC1 [PCM-0215373]	26.3
CC(=O)CC/C=C(\C)CC/C=C(\C)CC/C=C(\C)CCC=C(C)C [PCM-0215116]	2.3
CC1(C)CC[C@]2(C(=O)O)CC[C@]3(C)C(=CC[C@@H]4[C@@]5(C)CC[C@H](O)[C@@](C)(CO)[C@@H]5CC[C@]43C)[C@@H]2C1 [PCM-0215046]	15.6
Cc1nc(NC(=O)N2CCC[C@H]2C(N)=O)sc1-c1csc(C(C)(C)C)n1 [PCM-0095518]	7.6
CC1(C)S[C@@H]2[C@H](NC(=O)[C@H](NC(=O)N3CCN(S(C)(=O)=O)C3=O)c3ccccc3)C(=O)N2[C@H]1C(=O)O [PCM-0214758]	-19.5
CN1CCN(c2c(F)cc3c(=O)c(C(=O)O)cn4c3c2OCN4C)CC1 [PCM-0095142]	0
CC(C)(O)CNc1ncc(-c2ccnc(Nc3ccnc(Cl)c3)n2)c(CC2CC2)n1 [PCM-0215614]	-14.5
CCCc1cc2c(N3CCN(C4=NCC(C)(C)S4)CC3)ncnc2s1 [PCM-0215393]	-24.7
CCCOC(=O)c1cc(O)c(O)c(O)c1 [PCM-0215973]	11.6
O=c1c2ccccc2oc2ccccc12 [PCM-0091091]	-21
Cc1cn([C@H]2C[C@H](N=[N+]=[N-])[C@@H](CO)O2)c(=O)[nH]c1=O [PCM-0085965]	-3.1
Cn1c(=O)cc(C(=O)Nc2ccc3c(c2)OCCO3)c2ccccc21 [PCM-0215702]	-3.9
CCN(CC)C(=O)c1ccc(C2=CC3(CCNCC3)Oc3cccc(O)c32)cc1 [PCM-0094948]	-14
O=C(O)C(=O)CBr [PCM-0216160]	6.2
CO/N=C(\C(=O)N[C@@H]1C(=O)N2C(C(=O)O)=CCS[C@H]12)c1csc(N)n1 [PCM-0215091]	7.8
O[C@@H]1CO[C@H]2[C@@H]1OC[C@@H]2O [PCM-0214776]	-3.9
CC(C)CCCC(C)CCCC(C)CCCCC(C)CCCC(C)CCCC(C)C (stereo not drawn) [PCM-0216154]	8.5
CC1CCc2cc(F)cc3c(=O)c(C(=O)O)cn1c23 (stereo not drawn) [PCM-0085858]	-10.1
C[C@]12C=CC(=O)C=C1CC[C@@H]1[C@@H]2[C@@H](O)C[C@@]2(C)[C@H]1CC[C@]2(O)C(=O)CO [PCM-0085835]	-7

Compound	inhibition at 10 µM [%]
CC(=O)CCc1ccccc1 [PCM-0216622]	-6.9
COc1ccc(CNCc2cccc3ccccc23)cc1 [PCM-0095454]	-19.5
CCOc1nc2cccc(C(=O)OCc3oc(=O)oc3C)c2n1Cc1ccc(-c2ccccc2-c2noc(=O)[nH]2)cc1 [PCM-0090373]	24.1
CCc1c(O)cc(O)c(C(=O)c2ccc(OCCN3CCOCC3)c(OC)c2)c1CC(=O)N(CCOC)CCOC [PCM-0095381]	2.3
C[C@@H]1O[C@H]2O[C@H]3[C@@H](OC[C@H](O)[C@@H]3O)OC(=O)[C@]34CCC(C)(C)C[C@H]3C3=CC[C@H]5[C@@]6(C)C[C@H](O)[C@H](O[C@@H]7O[C@H](CO)[C@@H](O)[C@H](O)[C@H]7O[C@@H]7OC[C@H](OC(=O)C[C@](C)(O)CC(=O)O[C@@H]1[C@@H](O[C@@H]1OC[C@@H](O)[C@H](O)[C@H]1O)[C@H]2O)[C@H](O)[C@H]7O)[C@@](C)(CO)[C@@H]6CC[C@@]5(C)[C@]3(C)CC4 [PCM-0214951]	6.2
COC(=O)c1ccc(O)c(O)c1 [PCM-0215036]	-15.6
CC(C)c1cc(C(C)C)c(CC(=O)NS(=O)(=O)Oc2c(C(C)C)cccc2C(C)C)c(C(C)C)c1 [PCM-0095235]	56
NC(=O)c1cnc(N[C@@H]2CCCC[C@@H]2N)nc1Nc1cccc(-n2nccn2)c1 [PCM-0095619]	70.3
COc1c(O)cc2c(c1O)C(=O)c1c(cc(C)c(O)c1OC)C2=O [PCM-0216431]	28.6
COC(=O)Nc1nc2ccc(C(=O)c3ccc(F)cc3)cc2[nH]1 [PCM-0086402]	-3.4
OC[C@H]1O[C@@H](Oc2cc(O)cc(/C=C/c3ccc(O[C@@H]4O[C@H](CO)[C@@H](O)[C@H](O)[C@H]4O)cc3O)c2)[C@H](O)[C@@H](O)[C@@H]1O [PCM-0216371]	-5.4
O=C(O)CCCCC1CCSS1 (stereo not drawn) [PCM-0090722]	-16.3
C[C@H](CN(C)C)Oc1nc(Nc2cc3cccc(Cl)c3cn2)cnc1C#N [PCM-0215773]	-3.4
O=C(O)c1ccccc1O [PCM-0090179]	-16.3
CCNC(=O)c1noc(-c2cc(C(C)C)c(O)cc2O)c1-c1ccc(CN2CCOCC2)cc1 [PCM-0095017]	-0.7
CCc1ccc(C(=O)C(C)CN2CCCCC2)cc1 (stereo not drawn) [PCM-0215109]	-24.1
CC(=O)Cc1cc(=O)c2c(C)cc(O)c([C@@H]3O[C@H](CO)[C@@H](O)[C@H](O)[C@H]3O)c2o1 [PCM-0216524]	3.9
CN1CCN(c2ccc(Nc3ncc4cc(C#N)c(=O)n(C5CCCC5)c4n3)cc2)CC1 [PCM-0215612]	19.3
CCCCCCCCCCCCCCCCOc1nc2ccc(C)cc2c(=O)o1 [PCM-0215987]	-28.9
C[C@H](CCC(=O)O)[C@H]1CC[C@H]2[C@@H]3[C@H](O)C[C@@H]4C[C@H](O)CC[C@]4(C)[C@H]3CC[C@]12C [PCM-0214654]	6.2
O=C(Nc1cccc(C(F)(F)F)c1)c1cccc2cc(Oc3cc(CO)ncn3)ccc12 [PCM-0215724]	-0.7
COc1ccc2c(O[C@@H]3C[C@H]4C(=O)N[C@]5(C(=O)NS(=O)(=O)C6CC6)C[C@H]5/C=C\CCCCN(C)C(=O)[C@@H]4C3)cc(-c3nc(C(C)C)cs3)nc2c1C [PCM-0215097]	55.6
C[C@H](O)[C@H](O)c1cnc2nc(N)[nH]c(=O)c2n1 [PCM-0216576]	6.8
CCCCC[C@H](O)CC(=O)CCc1ccc(O)c(OC)c1 [PCM-0214961]	1.6

Compound	inhibition at 10 µM [%]
NC(=O)C(c1ccccc1)(c1ccccc1)[C@@H]1CCN(CCc2ccc3c(c2)CCO3)C1 [PCM-0086175]	4.7
CC(C)(C)/[N+]([O-])=C/c1ccc(S(=O)(=O)O)cc1S(=O)(=O)O [PCM-0095556]	7.7
CCN1CC(CCN2CCOCC2)C(c2ccccc2)(c2ccccc2)C1=O (stereo not drawn) [PCM-0095590]	8.6
Cc1cc(C(N)=O)ccc1-n1c(CCC(=O)O)ccc1-c1ccc(-n2ccnc2)cc1 [PCM-0215346]	6.9
c1ccc(-c2nn3c(c2-c2ccnc4cc(OCCN5CCOCC5)ccc24)CCC3)nc1 [PCM-0095413]	-24.7
C[C@H](Cc1cc2c(c(C(N)=O)c1)N(CCCO)CC2)NCCOc1ccccc1OCC(F)(F)F [PCM-0214784]	-12.5
CCNC(=O)[C@@H]1CCCN1C(=O)[C@H](CCCN=C(N)N)NC(=O)[C@H](CC(C)C)NC(=O)[C@@H](CC(C)C)NC(=O)[C@H](Cc1ccc(O)cc1)NC(=O)[C@H](CO)NC(=O)[C@H](Cc1c[nH]c2ccccc12)NC(=O)[C@H](Cc1cnc[nH]1)NC(=O)[C@@H]1CCC(=O)N1 [PCM-0214915]	-11.7
C[C@H](Nc1ncnc2nc[nH]c12)c1cc2cccc(Cl)c2c(=O)n1-c1ccccc1 [PCM-0095570]	2.1
Clc1ccc(COC(Cn2ccnc2)c2ccc(Cl)cc2Cl)cc1 (stereo not drawn) [PCM-0085902]	7.8
CC#CCn1c(N2CCC[C@@H](N)C2)nc2c1c(=O)n(Cc1nc(C)c3ccccc3n1)c(=O)n2C [PCM-0090431]	-3.1
CCCC[S+]([O-])c1sc2nc(-c3cccs3)cc(-c3ccccc3)c2c1N (stereo not drawn) [PCM-0215569]	0.8
COc1cnc(NS(=O)(=O)c2ccc(N)cc2)nc1 [PCM-0086492]	5.4
COC(=O)N[C@H](C(=O)N[C@@H](Cc1ccccc1)[C@@H](O)CN(Cc1ccc(-c2ccccn2)cc1)NC(=O)[C@@H](NC(=O)OC)C(C)(C)C)C(C)(C)C [PCM-0095133]	-10.9
CC(=O)OCc1ccccc1 [PCM-0216204]	10.8
CCCCOCc1ccc(O)c(OC)c1 [PCM-0215915]	-15.6
C[C@@H](O)[C@H]1C(=O)N2C(C(=O)O)=C(S[C@@H]3CN[C@H](C(=O)Nc4cccc(C(=O)O)c4)C3)[C@H](C)[C@H]12 [PCM-0216643]	0.8
COc1c(C)c2c(c(O)c1C/C=C(\C)CCC(=O)OCCN1CCOCC1)C(=O)OC2 [PCM-0090398]	-15.2
CC1COC2(CCN(c3nc(=O)c4cc(C(F)(F)F)cc([N+](=O)[O-])c4s3)CC2)O1 (stereo not drawn) [PCM-0095074]	4.7
O=c1[nH]c([C@@H]2CCCN2)nc2c1oc1ccc(Cl)cc12 [PCM-0215335]	-0.9
CCCc1nc2c(C)cc(-c3nc4ccccc4n3C)cc2n1Cc1ccc(-c2ccccc2C(=O)O)cc1 [PCM-0086294]	-10.9
CCCCCCC(O)C(=O)O (stereo not drawn) [PCM-0216106]	-10
COc1cc2ncnc(Nc3ccc(Oc4ccccc4)cc3C)c2cc1OC [PCM-0215704]	110
